“Also recorded” adds a separate entry of the source.
Columns and labels:
[1] = test system: P. vivax liver stages in PHH; experiment: P. vivax infection of primary human hepatocytes (PHH), quantification of extraerythrocytic forms by IFA; type: cell-based, Plasmodium vivax; details: 0.1 μM after day 3 post-infection, fixed day 6
Experimental: Primary human hepatocytes (BioIVT) were plated and infected in chamber slides as previously described (Schafer C, et al. A Humanized Mouse Model for Plasmodium vivax to Test Interventions that Block Liver Stage to Blood Stage Transition and Blood Stage Infection. […] 23, 101381 (2020)). Briefly, 8-well PermanoxTM slides (LabTek) were coated with collagen (Advanced Biomatrix) and seeded with 1.25×10^5 viable cells using InVitroGROTM CP medium (BioIVT) supplemented with 2% FBS without antibiotics (plating media). Four hours later, plating media was replaced with InVitroGROTM CP containing antibiotics (1× Torpedo Antibiotic Mix with 10 μM gentamycin) without serum (maintenance media). Two days after plating, cells were infected with freshly dissected P. vivax salivary gland sporozoites (MOI=1.0) for four hours in maintenance media supplemented with 20% FBS. Cells were washed once, and maintenance media replaced daily thereafter and stored at -80° C. for EV analysis. After day 3 post-infection, cultures were treated with 0.1 μM MMV048 or 0.1% DMSO as vehicle (FIG. 5). On day 6-post infection, cells were fixed and analyzed by IFA. Total extraerythrocytic forms (EEF) and schizont/hypnozoite numbers and ratio were quantified. IFA analysis of PHH and liver sections of FRG huHep mice was performed as described (Schafer C, et al. A Humanized Mouse Model for Plasmodium vivax to Test Interventions that Block Liver Stage to Blood Stage Transition and Blood Stage Infection. iScience 23, 101381 (2020); Schafer C, et al. A recombinant antibody against Plasmodium vivax UIS4 for distinguishing replicating from dormant liver stages. […] 17, 370 (2018)). Briefly, culture cells and liver tissue were fixed in 4% paraformaldehyde in TBS for 10 min (PHH) and 16 hours (liver sections). PHH were blocked and permeabilized in TBS with 2% bovine serum albumin and 0.2% Triton-X-100 (PBS/BSA/Triton). FRG huHep fixed livers were sectioned in 50 μm thick sections in a vibratome. […]

P. vivax liver stages = experiment: P. vivax infection of FRG huHep mice, quantification of liver stages by IFA; type: in vivo, Plasmodium vivax
Experimental: All animal procedures were conducted in accordance with and approved by the Center for Infectious Disease Research Institutional Animal Care and Use Committee (IACUC). The Center for Infectious Disease Research IACUC adheres to the NIH Office of Laboratory Animal Welfare standards (OLAW welfare assurance #A3640-01). Female FRG KO mice engrafted with human hepatocytes (FRG KO huHep) were purchased from Yecuris Corporation (Oregon, USA). P. vivax infections of FRG huHEP were performed as previously described. Briefly, mice were divided in five experimental groups. Group 1 (3 mice) was not infected. Group 2 (6 mice) was inoculated with P. vivax sporozoites by the bite of 20 mosquitos and euthanized after 8 days post-infection (dpi). Group 3 (6 mice) was infected by intravenous injection of P. vivax sporozoites (0.8 million) and euthanized after 8 dpi. Group 4 (6 mice) was infected by intravenous injection of P. vivax sporozoites (1 million sporozoites) and euthanized after 21 dpi. Group 5 (3 mice) was infected by intravenous injection (1 million sporozoites) and treated with Tafenoquine (10 mg/kg) at 14 dpi and euthanized at 21 dpi. MMV048 (Novartis) mice treatment (30 mg/kg) was performed as follows: three mice from Groups 2 and 3 received intravenous injections of the drug at 4 dpi; three mice from Group 4 received intravenous injections of the drug at 17 dpi. Three DMSO-treated animals were used as controls in groups 2, 3 and 4. After euthanasia, livers were extracted for characterization by IFA and RT-qPCR and whole blood was extracted by cardiac venipuncture for plasma collection as previously described (Schafer C, et al. A recombinant antibody against Plasmodium vivax UIS4 for distinguishing replicating from dormant liver stages. […] 17, 370 (2018)). IFA analysis of PHH and liver sections of FRG huHep mice was performed as described (Schafer C, et al. A Humanized Mouse Model for Plasmodium vivax to Test Interventions that Block Liver Stage to Blood Stage Transition and Blood Stage Infection. iScience 23, 101381 (2020); Schafer C, et al. A recombinant antibody against Plasmodium vivax UIS4 for distinguishing replicating from dormant liver stages. […] 17, 370 (2018)). Briefly, culture cells and liver tissue were fixed in 4% paraformaldehyde in TBS for 10 min (PHH) and 16 hours (liver sections). PHH were blocked and permeabilized in TBS with 2% bovine serum albumin and 0.2% Triton-X-100 (PBS/BSA/Triton). FRG huHep fixed livers were sectioned in 50 μm thick sections in a vibratome. Tissue sections were then permeabilized in 0.25% Triton X-100 and 3% H2O2 for 30 min followed by a blocking step in 5% skim milk in TBS for 1 hour at RT. […]

P. vivax = experiment: 18S qRT-PCR analysis of liver parasite load in infected FRG huHep mice; type: in vivo, Plasmodium vivax; details: for parasite load, 18S rRNA in liver tissue by RT-qPCR: compared to DMSO
Experimental: All animal procedures were conducted in accordance with and approved by the Center for Infectious Disease Research Institutional Animal Care and Use Committee (IACUC). The Center for Infectious Disease Research IACUC adheres to the NIH Office of Laboratory Animal Welfare standards (OLAW welfare assurance #A3640-01). Female FRG KO mice engrafted with human hepatocytes (FRG KO huHep) were purchased from Yecuris Corporation (Oregon, USA). P. vivax infections of FRG huHEP were performed as previously described. Briefly, mice were divided in five experimental groups. Group 1 (3 mice) was not infected. Group 2 (6 mice) was inoculated with P. vivax sporozoites by the bite of 20 mosquitos and euthanized after 8 days post-infection (dpi). Group 3 (6 mice) was infected by intravenous injection of P. vivax sporozoites (0.8 million) and euthanized after 8 dpi. Group 4 (6 mice) was infected by intravenous injection of P. vivax sporozoites (1 million sporozoites) and euthanized after 21 dpi. Group 5 (3 mice) was infected by intravenous injection (1 million sporozoites) and treated with Tafenoquine (10 mg/kg) at 14 dpi and euthanized at 21 dpi. MMV048 (Novartis) mice treatment (30 mg/kg) was performed as follows: three mice from Groups 2 and 3 received intravenous injections of the drug at 4 dpi; three mice from Group 4 received intravenous injections of the drug at 17 dpi. Three DMSO-treated animals were used as controls in groups 2, 3 and 4. After euthanasia, livers were extracted for characterization by IFA and RT-qPCR and whole blood was extracted by cardiac venipuncture for plasma collection as previously described (Schafer C, et al. A recombinant antibody against Plasmodium vivax UIS4 for distinguishing replicating from dormant liver stages. Malar J 17, 370 (2018)).
Liver parasite load from infected FRG huHEP mice was quantified as previously described (Flannery E L, et al. Assessing drug efficacy against Plasmodium falciparum liver stages in vivo. JCI Insight 3, (2018)).

Plasmodium spp. = details: preclinical studies; cited from earlier work
[2] = test system: P. cynomolgi liver hypnozoites; details: radical cure mode, both in vitro and in vivo; cited from earlier work
[3] = group 4: intravenous infection, treated at 17 dpi, livers collected 21 dpi
[4] = group 5: 10 mg/kg at 14 dpi, euthanized 21 dpi

SMILES | hypnozoites by IFA [1] | schizonts by IFA ([1]; compared to DMSO) | total extraerythrocytic forms (EEF) by IFA ([1]; compared to DMSO-treated cells) | number of schizonts in liver by IFA (P. vivax liver stages; 30 mg/kg intravenous, groups 2, 3 and 4, compared to control mice) | hypnozoites in liver by IFA (P. vivax liver stages; [3]) | schizonts in liver by IFA (P. vivax liver stages; [3]) | parasite load, 18S rRNA in liver tissue by RT-qPCR (P. vivax; day 21, group 4) | parasite load, 18S rRNA in liver tissue by RT-qPCR (P. vivax; mosquito bite and intravenous infection, treated at 4 dpi, analyzed 8 dpi) | activity against asexual, transmission and liver stages (Plasmodium spp.) | activity against liver hypnozoites [2] | liver forms by IFA (P. vivax liver stages; [4]) | parasite 18S rRNA in liver by RT-qPCR (P. vivax; [4])
CS(=O)(=O)c1ccc(-c2cnc(N)c(-c3ccc(C(F)(F)F)nc3)c2)cc1 [MMV048] | resistance of hypnozoites to the drug | no schizonts were observed; also recorded: removed schizonts | significant reduction | significantly lower number of schizonts; also recorded: removed schizonts | only one hypnozoite was detected | no schizonts | no differences | significantly reduced parasite load | potent activity | ineffective | – | –
COc1cc(C)c2c(Oc3cccc(C(F)(F)F)c3)c(OC)cc(NC(C)CCCN)c2n1 (stereo not drawn) [Tafenoquine] | – | – | – | – | – | – | – | – | – | – | no liver forms were quantified | presence of parasite 18S rRNA

— patent publication US20230045390A1, “PLASMODIUM VIVAX MALE GAMETE FUSION PROTEIN PVHAP2 AND THE PUTATIVE PROLIFERATING-CELL NUCLEOLAR ANTIGEN P120 AS RELAPSE BIOMARKERS” (Seattle Children's Hospital dba Seattle Children's Research …, priority 2021, published 2023)
